Source: patent US20100173298A1, “HCV GENE” (priority 2007, published 2010)

Tests used:
[1] = system: pTPF1/AHC1_AgeBsr full-length HCV RNA replicon; assay: Inhibition of replication of full-length HCV RNA replicon by interferon (core antigen in Huh7 cells); assay type: cell-based, hepatitis C virus (genotype 1b); conditions: interferon 0.1 to 300 IU/ml for 24 hours, core antigen in cells vs no-interferon control
Source text: (§1) Evaluation of an inhibitory action of interferon on the replication of the HCV RNA replicon was attempted using the full-length HCV RNA replicon. The full-length HCV RNA used for the evaluation of the inhibitory action of interferon was pTPF1/4B which was replicable with high efficiency in Huh7 cells in Example 4 and a chimera between AHC1 obtained in Example 6 and pTPF1/4B was also used. As for a chimera vector, the full-length HCV DNA pTPF1 was digested with restriction enzymes, Age I and Bsr GI and a fragment obtained by digesting AHC1 with restriction enzymes, Age I and Bsr GI were ligated to and inserted into the region of the cleavage of pTPF1, thereby preparing HCV DNA pTPF1/AHC1_AgeBsr in which the structural protein region of AHC1 was inserted. […]
(§2) At twenty four hours after the culture was started, the medium was replaced with culture medium dissolving various concentrations (from 0.1 IU/ml to 300 IU/ml) of interferon. […] Cell pellet was dissolved in 50 μl of RIPA buffer (20 mM Tris-HCl (pH 7.5), 150 mM NaCl, 1 mM EDTA, 1% NP40, 0.1% Deoxycholate, 0.1% SDS, Complete protease inhibitor cocktail (Roche diagnostics corporation) and supernatant was collected by centrifugation at 10 k rpm for 5 minutes. The supernatant in an amount of 5 μl was measured using a kit for HCV core antigen (FUJIREBIO, Lumipulse).

[2] = system: pTPF1/4B full-length HCV RNA replicon; assay: as above; assay type: cell-based, hepatitis C virus (genotype 1b); conditions: pTPF1/4B RNA in Huh7 cells; interferon 0.1 to 300 IU/ml for 24 hours; core antigen in cells vs no-interferon control
Source text: as §1, §2

## interferon
[1]
  Inhibitory activity for replication of HCV RNA replicon: IC50: 33 IU/m
[2]
  Inhibitory activity for replication of HCV RNA replicon: IC50: >300 IU/m
